In PMC6591397, “Functional Roles of Metabolic Intermediates in Regulating the Human Mitochondrial NAD(P)^+-Dependent Malic Enzyme” (Scientific Reports, 2019):
Like-named read-outs stand apart in the source and are kept apart here.

Columns and labels:
[1] = biological target: human m-NAD(P)-ME WT and the exosite mutants; assay: Size distribution analysis by analytical ultracentrifugation of WT and exosite mutants, protein only, with NAD+ or with ATP; format: binding; settings: PBS
Procedure: Size distribution of the monomer-dimer-tetramer equilibrium of the enzyme was monitored using a Beckman Optima XL-A analytical ultracentrifuge instrument. A protein sample (380 µl) and reference buffer (400 µl) were loaded into a well-assembled cell with a double-sector centerpiece. Experiments were performed with an An-50Ti rotor at 42,000 rpm and 20 °C for 3 to 4 hours. The scans for sedimentation velocity data were monitored by the UV absorbance at 280 nm with a 480 s interval time and a 0.002 cm step size in continuous distribution mode. Using the SEDFIT 9.4c software[31]–[34], the size distribution of the enzyme was analyzed with a resolution corresponding to N = 200 to cover the range of sedimentation coefficient (S) values from approximately 0.1 to 20, a confidence level of p = 0.95, and a best-fit average anhydrous frictional ratio (f/f0). The dissociation constants of monomer-dimer-tetramer self-association model were globally analyzed by using the SEDPHAT software.
All sedimentation velocity data were globally fitted by a monomer-dimer-tetramer equilibrium model by the software program of SEDPHAT[34]. The parameters protein partial specific volume, solvent density and viscosity were calculated with the […] software program.
Figure 4 Continuous sedimentation coefficient distribution of human m-NAD(P)-ME WT and the exosite mutants. The enzyme concentrations were fixed at 1.6, 4.7, and 14.2 μM in PBS. […] (a) ME2_WT; (b) ME2_H154V; (c) ME2_K156A; (d) ME2_G192A; (e) ME2_R194N; (f) ME2_R197E; (g) ME2_R197D.
Figure 5 Continuous sedimentation coefficient distribution of human m-NAD(P)-ME WT and the exosite mutants. The enzyme concentrations were fixed at 1.6, 4.7, and 14.2 μM in PBS. […] (a) ME2_N482G; (b) ME2_N482A; (c) ME2_R542V; (d) ME2_Y552F; (e) ME2_R556Q; (f) ME2_R556V.

[2] = tested on: human m-NAD(P)-ME WT and exosite mutants; assay: Enzyme kinetic assay (NADH production, absorbance at 340 nm) of WT and exosite mutants; format: biochemical; settings: for K0.5,malate / Km / kcat: pH 7.4
Procedure: The ME reaction was measured with the production rate of NADH or NADPH via the absorbance at 340 nm. The reaction mixture in a saturated condition included 1 mM NAD(P)^+, 40 mM malate, and 10 mM MgCl2 in 50 mM Tris-HCl (pH 7.4). To determine the Km and kcat values, the concentration of one substrate was varied around its Km values while the concentrations of the other components were fixed at saturated concentrations.
The cooperativity of malate was determined with the following equation: ν=Vmax×[Malate]^h/K0.5h+[Malate]^h where ν is the initial velocity, Vmax is the maximum rate of the reaction, K0.5 is the substrate concentration at half-maximal velocity, and h is the Hill coefficient, which represents the degree of cooperativity.

[3] = protein only, read-out: Kd,12 monomer-dimer dissociation constant
[4] = protein only, read-out: Kd,24 dimer-tetramer dissociation constant
[5] = read-out: Kd,12(ATP), with 0.5 mM ATP
[6] = read-out: Kd,24(ATP), with 0.5 mM ATP
[7] = with 0.4 mM NAD+, read-out: Kd,12(NAD)
[8] = with 0.4 mM NAD+, read-out: Kd,24(NAD)

Kd [1, 3] [nM] | Kd [1, 4] [nM] | Kd [1, 5] [nM] | Kd [1, 6] [nM] | Kd [1, 7] [nM] | Kd [1, 8] [nM] | h (Hill coefficient, malate cooperativity) ([2]; (+) with 5 mM fumarate) | h (Hill coefficient, malate cooperativity) ([2]; (−) without fumarate) | h (Hill coefficient, malate cooperativity) ([2]; (−) without fumarate, listed as Human m-NAD(P)-ME) | Substance | K0.5,malate ([2]; (+) with 5 mM fumarate) [mM] | Km ([2]; (+) with 5 mM fumarate) [µM] | kcat ([2]; (+) with 5 mM fumarate) [s⁻¹] | K0.5,malate ([2]; (−) without fumarate) [mM] | Km ([2]; (−) without fumarate) [µM] | kcat ([2]; (−) without fumarate) [s⁻¹] | kcat compared with the WT value [2]
90 ± 2 | 300 ± 1 | 210 ± 10 | 400 ± 10 | 60 ± 2 | 180 ± 10 | 1.19 ± 0.10 | 1.30 ± 0.19 | – | G192A: exosite mutant of human m-NAD(P)-ME | 2.65 ± 0.18 | 320 ± 30 | 230.0 ± 4.4 | 11.18 ± 2.08 | 570 ± 70 | 210.6 ± 7.7 | –
240 ± 2 | 350 ± 3 | 640 ± 10 | 2720 ± 60 | 660 ± 10 | 50 ± 1 | 1.10 ± 0.09 | 2.41 ± 0.32 | approximately 2 | WT: wild-type human mitochondrial NAD(P)+-dependent malic enzyme (ME2), recombinant from E. coli | 2.98 ± 0.21 | 390 ± 50 | 261.7 ± 6.0 | 10.67 ± 0.64 | 540 ± 60 | 252.0 ± 8.2 | –
120 ± 4 | 320 ± 10 | 320 ± 10 | 800 ± 20 | 1360 ± 50 | 80 ± 3 | 1.01 ± 0.10 | 1.65 ± 0.04 | – | K156A: exosite mutant of human m-NAD(P)-ME | 3.56 ± 0.40 | 320 ± 30 | 223.6 ± 5.1 | 10.12 ± 0.21 | 650 ± 70 | 209.9 ± 6.2 | –
10 ± 1 | 440 ± 10 | 20 ± 1 | 9870 ± 380 | 1870 ± 80 | 210 ± 10 | 1.06 ± 0.11 | 1.43 ± 0.09 | – | R542V: exosite mutant of human m-NAD(P)-ME | 5.89 ± 0.78 | 910 ± 180 | 239.3 ± 12.6 | 27.00 ± 3.44 | 2180 ± 270 | 175.6 ± 14.0 | –
800 ± 20 | 260 ± 10 | 690 ± 20 | 110 ± 3 | 60 ± 3 | 810 ± 40 | 1.06 ± 0.05 | 1.76 ± 0.23 | – | R197D: exosite mutant of human m-NAD(P)-ME | 4.98 ± 0.28 | 130 ± 20 | 216.0 ± 0.1 | 17.82 ± 2.01 | 460 ± 50 | 206.8 ± 0.1 | –
130 ± 1 | 2300 ± 20 | 2030 ± 60 | 180 ± 10 | 600 ± 10 | 4070 ± 80 | 1.24 ± 0.30 | 2.35 ± 0.47 | – | R556V: exosite mutant of human m-NAD(P)-ME | 1.87 ± 0.26 | 360 ± 20 | 204.9 ± 9.5 | 15.90 ± 1.51 | 1080 ± 60 | 195.2 ± 12.8 | –
30 ± 2 | 460 ± 3 | 460 ± 10 | 4030 ± 40 | 70 ± 1 | 160 ± 1 | 1.08 ± 0.05 | 1.99 ± 0.10 | – | H154V: exosite mutant of human m-NAD(P)-ME | 4.94 ± 0.26 | 530 ± 40 | 140.5 ± 2.5 | 15.31 ± 0.51 | 970 ± 60 | 134.6 ± 2.9 | reduced to half of the WT value
